We go through 89 compounds from a melting point compilation (Tetko et al.; mined from patent text by program, amines drawn as free bases though some values may be those of a salt).

SMILES strings stand for the structures.

The compound `COc1ccc(CO)cc1OCc1nc(-c2ccco2)oc1C` returned a melting point of 145 to 146 °C.

`Cc1cc(Br)ccc1NC(=O)CC(=O)Sc1ccccc1`: the melting point fell in the range of 133 to 135 °C.

`O=C(O)c1cc(OCc2ccccc2)c(OCc2ccccc2)c(OCc2ccccc2)c1` showed a melting point of 194 to 195 °C.

`CCCCCCCCCCCC(=O)OC1C(C)C(c2ccccc2)NC(c2ccccc2)C1C` (centres undefined): the melting point lay within 74 to 76 °C.

Consider `CC1(C)C(C)(C)C1(Cl)c1ccc2c(c1)OCO2`, for which the melting point fell in the range of 110 to 112 °C.

`CC1CCC(Nc2nccc(Oc3ccc(NC(=O)c4cc(F)cc(N5CCCCC5)c4)c4ccccc34)n2)CC1` (centres undefined) came in with a melting point of 101 to 102 °C.

On to `O=C(O)[C@@H](Cc1ccccc1)Oc1c(Br)cc(-c2c3ccccc3c(Br)c3sc4ccccc4c23)cc1Br`, for which the melting point was in the range of 140 to 142 °C.

`O=C(C1CCCc2c1c1ccccc1n2Cc1ccccc1)N1CCCCC1` (centres undefined) gave a melting point of 249 to 252 °C.

`CCN(CC)CC(O)c1c(OC)ccc2c(C)c(C)oc12` (centres undefined) registered a melting point of 55 °C.

As for `CC(C)(C)OC(=O)NCCCC(=O)NCc1cccc2c1CN(C1CCC(=O)NC1=O)C2=O` (centres undefined), the melting point was 199 to 201 °C.

Take `CN(C)C(=O)C#C[C@H]1CC[C@H](N(C)C(=O)OC(C)(C)C)CC1`: the melting point fell in the range of 115 to 117 °C.

Compound `CCOC(=O)c1cn2c(cc(-c3cccc(Cl)c3)c3cc(C(c4ccc(Cl)cc4)c4nncn4C)ccc32)n1` (centres undefined) registered a melting point of 220 °C.

In the case of `Oc1ccc(C2CCOCC2)cc1Cl`, the melting point was in the range of 123 to 125 °C.

`Cc1noc(-c2cccc(CN3CCN(c4ccc(NC(=O)c5cccc(C)c5-c5ccc(C(C)C)cc5)cc4)CC3)c2)n1` displayed a melting point of 74 °C.

In turn, `NNc1nncc(-c2cccc(Cl)c2)n1` yielded a melting point of 163 to 166 °C.

Take `CC(=O)c1c(C)sc(-c2ccncc2)c1C`: the melting point fell in the range of 80 to 81 °C.

As for `O=C(O)CCCCn1ccnc1`, the melting point is 157 to 158 °C.

In turn, `Nc1cccc(SCc2ccccc2)n1` registered a melting point of 65 to 66 °C.

Compound `CC1CC(=O)NN=C1c1ccc2c(c1)N(C)C(=O)C(C)O2` (centres undefined) displayed a melting point of 184 to 185 °C.

The compound `CCOC(=O)c1cn(-c2nccs2)c2nc(Cl)cc(NCc3ccccc3)c2c1=O` had a melting point of 141 to 143 °C.

`Cc1ccn2c(-c3ccnc(-c4ccc(CN5CCOCC5)cc4)c3)c(-c3cccc(C)n3)nc2c1` gave a melting point of 188 °C.

The compound `O=C(O)Cc1ccc2c(c1)sc1ccccc12` gave a melting point of 174 to 176 °C.

The compound `COc1nc(C(F)(F)F)cc(=O)n1-c1cc(OCCON=C(C)C)c(Br)cc1F` registered a melting point of 149 to 150 °C.

Turning to `O=C(O)C1=Cc2cc(-c3cccs3)ccc2OC1C(F)(F)F` (centres undefined), the melting point lay in the range of 209 to 212 °C.

Compound `Cc1oc(-c2ccccc2)nc1COc1nn(Cc2ccc(Oc3ccccc3)cc2)cc1C(=O)O` gave a melting point of 222 to 223 °C.

With `CCOC(=O)C(C(=O)OCC)c1c(Cl)cnc2c([N+](=O)[O-])cccc12`, the melting point stood at 102 °C.

Compound `N#Cc1ccc(OCc2ccncc2)cc1F` yielded a melting point of 132 to 133 °C.

The compound `COC(=O)c1cccnc1N(C)C1CCN(Cc2ccccc2)CC1` came in with a melting point of 109 to 110 °C.

`COc1ccc(Oc2cccc(C(=O)NCCN(O)C(N)=O)c2)cc1` displayed a melting point of 160 to 162 °C.

`NC(=O)CC(O)(Cn1cncn1)c1ccc(Cl)cc1Cl` (centres undefined) showed a melting point of 144 to 145 °C.

Consider `N#CC=Cc1ccc(F)c(Cl)c1F`, for which the melting point was 76 to 77 °C.

Take `CCOCc1nc2c(N)nc3c(c2n1CCCCS(N)(=O)=O)CCCC3`: the melting point lay within 224 to 227 °C.

`COc1cc(Nc2c(C#N)cnc3cc(-c4csc(CN5CCOCC5)c4)sc23)c(Cl)cc1Cl` registered a melting point of 209 to 212 °C.

Regarding `COc1cc(C(=O)N(C(C)C)C2CCCCC2)ccc1Cn1c(-c2ccccc2Cl)nc2cccnc21`, the melting point was 121 to 123 °C.

Take `O=S(=O)(Nc1cccc(OCc2ccc3ccccc3n2)c1)C(F)(F)F`: the melting point is 144 to 146 °C.

In turn, `COc1cc2c(cc1OC)C(=O)C(c1ccc(F)cc1)C2` (centres undefined) displayed a melting point of 189 to 191 °C.

`CCCC(CCC)(CC(=O)O)CC(=O)O` returned a melting point of 107 °C.

For `COc1ccc(OCCCCCCCc2cc(C)no2)c(Cl)c1`, the melting point was 45 to 46 °C.

In the case of `Nc1nc(OCCc2ccc(Cl)cc2)nc2c1ncn2C1OC(CO)C(O)C1O` (centres undefined), the melting point is 156 to 159 °C.

Turning to `COc1ccc2c(c1)C(=O)CC21CCCC1`, the melting point was found to be 80 °C.

`CC/C=C/C(=O)NC(=O)OC(C)(C)C` registered a melting point of 78 to 79 °C.

With `COC(=O)c1cc(=O)c2c(C)cc(Br)cc2[nH]1`, the melting point fell in the range of 258 to 259 °C.

`Cc1ccccc1Sc1cccc2c1OC(=O)C2`: the melting point is 108 to 109 °C.

`Cc1cccc(Cl)c1C(=O)N[C@@H](Cc1ccc(-c2cccn(C)c2=O)cc1)C(=O)O` gave a melting point of 204 to 210 °C.

Regarding `CCC1C(=O)c2c(cc(O)c(Cl)c2Cl)C1c1ccccc1` (centres undefined), the melting point lay in the range of 220 to 222 °C.

Regarding `Nc1ccc(CCc2nnco2)cc1`, the melting point was 73 to 74 °C.

As to `CS(=O)(=O)Nc1cc2c(cc1Oc1ccc(F)cc1F)C(O)CC2` (centres undefined), the melting point was found to be 119 °C.

As to `CN(C)CCNc1ccc2c3c(nn2CCNC(=O)OC(C)(C)C)-c2cnccc2C(=O)c13`, the melting point is 225 to 227 °C.

The compound `CCc1nc2c(C)cc(C)nc2n1Cc1ccc(C(=O)c2ccccc2)cc1` showed a melting point of 98 °C.

In turn, `Cc1ccccc1-n1ccc2c(NCCCO)nc3c(C)cccc3c21` yielded a melting point of 135 to 137 °C.

The compound `NS(=O)(=O)c1ccc(-c2cccc(-c3nc(-c4ccc(C(F)(F)F)nc4)cc(C(F)(F)F)n3)c2)s1` yielded a melting point of 250 °C.

`CCOC(=O)c1ccc(NCCOc2cccc3c2CCCC3)cc1` yielded a melting point of 133 to 135 °C.

`COc1cc2nc(Cl)n3ncnc3c2cc1OC` showed a melting point of 258 to 260 °C.

The compound `NC1=CC(N)=NCN1C(=O)OCc1ccccc1` displayed a melting point of 194 °C.

`COc1cc(COc2cc(N)c(Cl)cc2C(=O)CCCCN2CCCCCC2)cc(OC)c1`: the melting point lay in the range of 137 to 139 °C.

`O=C([C@H]1CC[C@H](Nc2ncc3ncnc(Nc4ccc(F)c(Cl)c4)c3n2)CC1)N1CCOCC1` yielded a melting point of 221 to 225 °C.

Compound `CCOC1CC(c2ccccc2)Oc2c1ccc1c2nc(C)n1C` (centres undefined) displayed a melting point of 177 to 178 °C.

With `COC(=O)c1cc(OCc2cccc(Cl)c2)ccc1OCCCC#N`, the melting point fell in the range of 97 to 98 °C.

On to `Clc1ccc(-c2cc(Cl)nc(Cl)n2)cc1`, for which the melting point fell in the range of 130 to 132 °C.

In turn, `COc1cc2c(c3c1OC(C)(C)C3)C(c1ccc(=O)n(-c3cccc(-c4ccccn4)n3)c1)=NC(C)(C)C2` had a melting point of 231 to 234 °C.

As to `CC(Cl)C(=O)Oc1coccc1=S` (centres undefined), the melting point fell in the range of 118 to 119 °C.

The compound `O=C(Cc1ccc(O)c(Cl)c1)Oc1cc(Cl)c(Cl)cc1Cl` came in with a melting point of 77 °C.

`Cc1nc(C)c(Cl)c(NCc2nccc(SCCCSCCSc3ncccn3)c2C)n1` yielded a melting point of 112 to 115 °C.

Compound `CN1C(=O)C2C3CCC(CC3)C2(c2ccc(Cl)c(Cl)c2)C1=O` (centres undefined) gave a melting point of 126 to 134 °C.

For `CN(CCCNC(=NCCCOc1cccc(CN2CCCCC2)c1)NC#N)CCN(Cc1ccc(F)cc1)c1ccccn1`, the melting point lay within 65 to 68 °C.

`CCOc1c(N)cc(-c2cccc3ccccc23)c2nc(C(=O)O)ccc12` registered a melting point of 182 to 184 °C.

For `CCCc1ccc(OCCN(C(=O)n2cccn2)c2ncnc3ccccc23)c(C)c1`, the melting point fell in the range of 114 to 115 °C.

`CC(=O)Nc1cc(C(=O)c2ccccc2)ccc1[N+](=O)[O-]`: the melting point is 97.8 °C.

`CC(C)(C)c1ccc(CCCCC(=O)CC2CCCCC2)cc1NC(=O)CC1c2ccccc2Oc2ccccc21` had a melting point of 126 to 127 °C.

On to `O=c1cc(CCl)nc2sc(-c3ccccc3)nn12`, for which the melting point lay in the range of 201 to 202 °C.

Turning to `Cc1noc(-c2cc3c(OC[C@@H](O)CN4CCC(c5ccc6ccccc6c5)CC4)cccc3s2)n1`, the melting point fell in the range of 180 to 182 °C.

In turn, `COc1ccc(Oc2ccc(C#CC(C)N(O)C(N)=O)s2)cc1` (centres undefined) had a melting point of 137 to 138 °C.

In turn, `CCc1ccc(-c2c(Cl)c(CN3C(=O)CCC3=O)nc3sc4c(c23)CCNC4)cc1` came in with a melting point of 157 to 158 °C.

For the compound `O=C(Nc1cccnc1)N1CCc2ccc(Cl)cc21`, the melting point fell in the range of 204 to 205 °C.

In turn, `CCOP(=O)(Cc1ccc(C(=O)O)s1)OCC` registered a melting point of 77 to 78 °C.

Consider `COc1cc(C#N)cc(-c2ccc3c(c2)C(C)(C)OC(=O)N3)c1`, for which the melting point is 254 to 255 °C.

`Cc1nc(-c2cccnc2)sc1-c1ccnc(Nc2ccc(N3CCOCC3)c(Cl)c2)n1` registered a melting point of 230 to 231 °C.

In turn, `CC(=O)OC1OCC[C@@H]1NC(=O)[C@H](Cc1ccccc1)NC(=O)OC(C)(C)C` (some centres undefined) showed a melting point of 156 to 157 °C.

On to `CS(=O)c1coc2cc(NS(C)(=O)=O)c(Oc3ccccc3)cc2c1=O` (centres undefined), for which the melting point is > 250 °C.

As to `CCOC(=O)C(NC(=O)CS(C)=O)C(=O)OCC` (centres undefined), the melting point fell in the range of 85 to 87 °C.

Compound `O=C(NC1CCN(CCCOc2ccc3c4c(c(=O)oc3c2)CCCC4)CC1)c1ccccc1O` came in with a melting point of 209 to 211 °C.

In turn, `Cc1ccc(N2CC(=O)N(c3ccc(S(N)(=O)=O)cc3Cl)C2)cc1` displayed a melting point of 223 to 226 °C.

In turn, `CC(C)(C)c1cc(-c2nc3n(c2CO)CCS3)cc(C(C)(C)C)c1O` registered a melting point of 227 to 229 °C.

Consider `COC(=O)C(O)=CC(=O)N(Cc1ccc(F)cc1)Cc1ccc(F)cc1`, for which the melting point lay within 118 to 120 °C.

Regarding `COc1ccc2c3c(cnc2c1)CCCC3O[Si](C)(C)C(C)(C)C` (centres undefined), the melting point lay within 102 to 104 °C.

Regarding `CCOC(=O)c1cc2cc(Br)ccc2s1`, the melting point is 94 to 95 °C.

`COc1ccc(C2Sc3ccccc3N(CCN(C)C)C(=O)C2OC(=O)c2ccccc2[N+](=O)[O-])cc1` (centres undefined) showed a melting point of 161 to 162 °C.

On to `CC(=O)Oc1ccc(N2CCC(=O)c3ccccc32)cc1`, for which the melting point lay in the range of 130 to 132 °C.

For `Cc1nn(-c2cccnc2)cc1C(=O)O`, the melting point lay in the range of 200 to 210 °C.

In general, melting point refers to the temperature of the solid-liquid transition.
